We go through 3 molecules from PubChem BioAssay AID1259407 (Chemical Carcinogenesis Research Information System (CCRIS), 2018).

SMILES strings stand for the structures. Calls of active or inactive are those of the source. No rule for the calls is given here.

In the series the test system is CCRIS mutagenicity, Ames/micronucleus/aberration tests. Description: CCRIS mutagenicity studies.
Where [1] appears, read: Test System: AMES SALMONELLA TYPHIMURIUM, Strain/Indicator: TA98, Metabolic Activation: NONE, Method: STANDARD PLATE.
Setting [2] is: Test System: AMES SALMONELLA TYPHIMURIUM, Strain/Indicator: TA100, Metabolic Activation: NONE, Method: STANDARD PLATE.
Setting [3] is: Test System: AMES SALMONELLA TYPHIMURIUM, Strain/Indicator: TA1535, Metabolic Activation: NONE, Method: STANDARD PLATE.
Where [4] appears, read: Test System: AMES SALMONELLA TYPHIMURIUM, Strain/Indicator: TA1537, Metabolic Activation: NONE, Method: STANDARD PLATE.
The mark [5] stands for this setting: Test System: MOUSE LYMPHOMA, Strain/Indicator: L5178Y (TK+/TK-), Metabolic Activation: NONE, Method: SUSPENSION/PLATE.

For the molecule `CN[C@H]1CCc2cc(OC)c(OC)c(OC)c2-c2ccc(OC)c(=O)cc21`, the mutagenic call under setting [1] is “inactive; negative”; the mutagenic call under setting [2] was “inactive; negative”; the mutagenic call (Test System: E. COLI, Strain/Indicator: WP2 (HCR), Metabolic Activation: NONE, Method: STANDARD PLATE) is “inactive; negative”.
As for `Cl[Si](Cl)(Cl)Cl`, the mutagenic call was “inactive; negative” under setting [1]; “inactive; negative” (Test System: AMES SALMONELLA TYPHIMURIUM, Strain/Indicator: TA98, Metabolic Activation: RAT LIVER S-9, AROCLOR 1254, Method: STANDARD PLATE); “inactive; negative” under setting [2]; “inactive; negative” (Test System: AMES SALMONELLA TYPHIMURIUM, Strain/Indicator: TA100, Metabolic Activation: RAT LIVER S-9, AROCLOR 1254, Method: STANDARD PLATE); “inactive; negative” under setting [3]; “inactive; negative” (Test System: AMES SALMONELLA TYPHIMURIUM, Strain/Indicator: TA1535, Metabolic Activation: RAT LIVER S-9, AROCLOR 1254, Method: STANDARD PLATE). Besides, the mutagenic call reads like this: under setting [4], “inactive; negative”; (Test System: AMES SALMONELLA TYPHIMURIUM, Strain/Indicator: TA1537, Metabolic Activation: RAT LIVER S-9, AROCLOR 1254, Method: STANDARD PLATE) “inactive; negative”; (Test System: AMES SALMONELLA TYPHIMURIUM, Strain/Indicator: TA1538, Metabolic Activation: NONE, Method: STANDARD PLATE) “inactive; negative”; (Test System: AMES SALMONELLA TYPHIMURIUM, Strain/Indicator: TA1538, Metabolic Activation: RAT LIVER S-9, AROCLOR 1254, Method: STANDARD PLATE) “inactive; negative”; (Test System: E. COLI, Strain/Indicator: P3078 POLA, Metabolic Activation: NONE, Method: SPOT TEST) “inactive; negative”; (Test System: E. COLI, Strain/Indicator: P3078 POLA, Metabolic Activation: RAT LIVER S-9, AROCLOR 1254, Method: SPOT TEST) “inactive; negative”. Further, the mutagenic call runs as follows: (Test System: E. COLI, Strain/Indicator: W3110, Metabolic Activation: NONE, Method: SPOT TEST) “inactive; negative”; (Test System: E. COLI, Strain/Indicator: W3110, Metabolic Activation: RAT LIVER S-9, AROCLOR 1254, Method: SPOT TEST) “inactive; negative”; under setting [5], “inactive; negative”; (Test System: MOUSE LYMPHOMA, Strain/Indicator: L5178Y (TK+/TK-), Metabolic Activation: RAT, LIVER, S-9, Method: SUSPENSION/PLATE) “inactive; negative”.
For `CCCCON=O`, the mutagenic call is, setting by setting: (Test System: AMES SALMONELLA TYPHIMURIUM, Strain/Indicator: TA98, Metabolic Activation: HAMSTER, LIVER, S-9, AROCLOR 1254, Method: STANDARD PLATE) “inactive; negative”; under setting [1], “inactive; negative”; (Test System: AMES SALMONELLA TYPHIMURIUM, Strain/Indicator: TA98, Metabolic Activation: RAT, LIVER, S-9, AROCLOR 1254, Method: STANDARD PLATE) “inactive; negative”; (Test System: AMES SALMONELLA TYPHIMURIUM, Strain/Indicator: TA98, Metabolic Activation: S-9, Method: STANDARD PLATE) “active; positive”; (Test System: AMES SALMONELLA TYPHIMURIUM, Strain/Indicator: TA100, Metabolic Activation: HAMSTER, LIVER, S-9, AROCLOR 1254, Method: STANDARD PLATE) “inactive; negative”; under setting [2], “active; positive”. Also, the mutagenic call by setting is: (Test System: AMES SALMONELLA TYPHIMURIUM, Strain/Indicator: TA100, Metabolic Activation: RAT, LIVER, S-9, AROCLOR 1254, Method: STANDARD PLATE) “inactive; negative”; (Test System: AMES SALMONELLA TYPHIMURIUM, Strain/Indicator: TA100, Metabolic Activation: S-9, Method: STANDARD PLATE) “active; positive”; (Test System: AMES SALMONELLA TYPHIMURIUM, Strain/Indicator: TA1535, Metabolic Activation: HAMSTER, LIVER, S-9, AROCLOR 1254, Method: STANDARD PLATE) “active; positive”; under setting [3], “active; positive”; (Test System: AMES SALMONELLA TYPHIMURIUM, Strain/Indicator: TA1535, Metabolic Activation: RAT, LIVER, S-9, AROCLOR 1254, Method: STANDARD PLATE) “active; positive”; (Test System: AMES SALMONELLA TYPHIMURIUM, Strain/Indicator: TA1537, Metabolic Activation: HAMSTER, LIVER, S-9, AROCLOR 1254, Method: STANDARD PLATE) “inactive; negative”. Further, the mutagenic call was “inactive; negative” under setting [4]; “inactive; negative” (Test System: AMES SALMONELLA TYPHIMURIUM, Strain/Indicator: TA1537, Metabolic Activation: RAT, LIVER, S-9, AROCLOR 1254, Method: STANDARD PLATE); “active; positive. reevaluation of results: positive” under setting [5]; “active; positive. reevaluation of results: positive” (Test System: MOUSE LYMPHOMA, Strain/Indicator: L5178Y (TK+/TK-), Metabolic Activation: RAT, LIVER, S-9, AROCLOR 1254, Method: SUSPENSION/PLATE).
